Assay results from patent US7439245B2, “Compounds” (Glaxo Group Limited, priority 2003, dated 2008).

Biological target: T1, human cloned 5-HT6 receptors (Homo sapiens, UniProt P50406)
T1 construct: expressed in transfected cells
Assay: 5-HT6 receptor affinity (procedures outlined in WO98/27081)
Format: binding
Details: read-out: pKi values at human cloned 5-HT6 receptors (converted)
Source text: Compounds can be tested following the procedures outlined in WO98/27081.

T1 sequence (P50406 whole entry): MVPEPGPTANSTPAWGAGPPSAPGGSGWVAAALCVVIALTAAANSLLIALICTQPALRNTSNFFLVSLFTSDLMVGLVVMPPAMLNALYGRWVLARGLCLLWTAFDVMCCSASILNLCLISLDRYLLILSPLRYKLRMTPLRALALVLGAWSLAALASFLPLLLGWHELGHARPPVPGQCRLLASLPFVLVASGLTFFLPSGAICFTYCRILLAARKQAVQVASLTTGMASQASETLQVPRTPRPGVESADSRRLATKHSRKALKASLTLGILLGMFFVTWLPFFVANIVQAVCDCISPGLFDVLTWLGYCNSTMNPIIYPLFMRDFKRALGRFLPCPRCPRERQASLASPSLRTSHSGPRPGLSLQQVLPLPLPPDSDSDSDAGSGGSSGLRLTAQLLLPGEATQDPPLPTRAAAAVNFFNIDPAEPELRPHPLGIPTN

Compound	Ki [nM]
O=S(=O)(c1ccccc1)c1cccc(N2CCNCC2)c1 [Example E1, 1-(3-Phenylsulfonyl-phenyl)piperazine]	< 10
O=S(=O)(c1ccccc1)c1cccc(N2CCNCC2)c1Cl [Example E2, 1-(3-Phenylsulfonyl-2-chlorophenyl)piperazine]	< 10
